In publication PMC7318034, “Safety, Pharmacokinetics, and Drug-Drug Interaction Potential of Intravenous Durlobactam, a β-Lactamase Inhibitor, in Healthy Subjects” (Antimicrobial Agents and Chemotherapy, 2020):

Experiment: Urine PK (urinary excretion, renal clearance) in healthy subjects
Settings: for CL renal: human, urine, intravenous, CLr
[1] = part C cohort 13, Day 5 (DUR 1 g + sulbactam 1 g)
[2] = part A cohort 6, single 4 g, n=4
[3] = part A cohort 7, single 8 g, n=5
[4] = part A cohort 8 (elderly), single 1 g, n=5
[5] = part B cohort 9, first 48 hours, dose over 48 hours 2.00 g (8 doses)
[6] = part B cohort 9, following the final dose on Day 8, 0.250 g
[7] = part B cohort 10, first 48 hours, dose over 48 hours 4.00 g (8 doses)
[8] = part B cohort 10, following the final dose on Day 8, 0.500 g
[9] = part B cohort 11, first 48 hours, dose over 48 hours 8.00 g (8 doses)
[10] = part B cohort 11, following the final dose on Day 8, 1.000 g
[11] = part B cohort 12, first 48 hours, dose over 48 hours 16.00 g (8 doses)
[12] = part B cohort 12, following the final dose on Day 8, 2.000 g
[13] = part C cohort 13, Day 1 (DUR 1 g alone)
[14] = part C cohort 14, Day 1 (DUR 1 g alone), mean
[15] = part D cohort 15, Day 1, DUR + SUL + IMI-CIL q6h, mean, n=10
[16] = part D cohort 15, Day 11, DUR + SUL + IMI-CIL q6h, mean, n=10

## CC1=C[C@@H]2CN(C(=O)N2OS(=O)(=O)O)[C@@H]1C(N)=O [DUR, Durlobactam]
0.5 g, median, part B cohort 10, first 48 hours, dose over 48 hours 4.00 g (8 doses)
  CL renal: 291 mL/min
0.5 g, median, part B cohort 10, following the final dose on Day 8, 0.500 g
  CL renal: 96.2 mL/min
1 g, mean, part A cohort 8 (elderly), single 1 g, n=5
  CL renal: 55.4 mL/min
1 g, mean, part B cohort 11, first 48 hours, dose over 48 hours 8.00 g (8 doses)
  CL renal: 364 mL/min
1 g, mean, part B cohort 11, following the final dose on Day 8, 1.000 g
  CL renal: 93.6 mL/min
1 g, median, part A cohort 8 (elderly), single 1 g, n=5
  CL renal: 66 mL/min
1 g, median, part B cohort 11, following the final dose on Day 8, 1.000 g
  CL renal: 98 mL/min
2 g, mean, part B cohort 9, first 48 hours, dose over 48 hours 2.00 g (8 doses)
  CL renal: 238 mL/min
2 g, mean, part B cohort 12, following the final dose on Day 8, 2.000 g
  CL renal: 108 mL/min
2 g, median, part B cohort 9, first 48 hours, dose over 48 hours 2.00 g (8 doses)
  CL renal: 220 mL/min
2 g, median, part B cohort 12, following the final dose on Day 8, 2.000 g
  CL renal: 109 mL/min
4 g, mean, part A cohort 6, single 4 g, n=4
  CL renal: 132 mL/min
4 g, mean, part B cohort 10, first 48 hours, dose over 48 hours 4.00 g (8 doses)
  CL renal: 272 mL/min
4 g, median, part A cohort 6, single 4 g, n=4
  CL renal: 134 mL/min
8 g, mean, part A cohort 7, single 8 g, n=5
  CL renal: 109 mL/min
8 g, median, part A cohort 7, single 8 g, n=5
  CL renal: 130 mL/min
8 g, median, part B cohort 11, first 48 hours, dose over 48 hours 8.00 g (8 doses)
  CL renal: 392 mL/min
16 g, mean, part B cohort 12, first 48 hours, dose over 48 hours 16.00 g (8 doses)
  CL renal: 307 mL/min
16 g, median, part B cohort 12, first 48 hours, dose over 48 hours 16.00 g (8 doses)
  CL renal: 307 mL/min
[1]
  CL renal: 81 mL/min
  Ae: 499.627 (95.305) mg
  Fe: 49.963 (9.530) %
[2]
  Ae, mean: 3057.384 mg
  Ae, median: 3114.55 mg
  Fe, mean: 76.4345%
  Fe, median: 77.8635%
[3]
  Ae, mean: 4401.576 mg
  Ae, median: 4705.45 mg
  Fe, mean: 55.0196%
  Fe, median: 58.8180%
[4]
  Ae, mean: 582.604 mg
  Ae, median: 573.87 mg
  Fe, mean: 58.2604%
  Fe, median: 57.3870%
Part A single dose
  intact drug renally excreted: approximately 50%
[5]
  Ae, mean: 953.242 mg
  Ae, median: 1031.41 mg
  Fe, mean: 47.662%
  Fe, median: 51.57%
[6]
  Ae, mean: 141.184 mg
  Ae, median: 151.20 mg
  Fe, mean: 56.473%
  Fe, median: 60.48%
[7]
  Ae, mean: 2157.551 mg
  Ae, median: 2288.24 mg
  Fe, mean: 53.939%
  Fe, median: 57.21%
[8]
  Ae, mean: 337.614 mg
  Ae, median: 329.39 mg
  Fe, mean: 67.523%
  Fe, median: 65.88%
[9]
  Ae, mean: 4535.949 mg
  Ae, median: 5204.73 mg
  Fe, mean: 56.699%
  Fe, median: 65.06%
[10]
  Ae, mean: 657.112 mg
  Ae, median: 670.87 mg
  Fe, mean: 65.711%
  Fe, median: 67.09%
[11]
  Ae, mean: 8856.594 mg
  Ae, median: 7879.32 mg
  Fe, mean: 55.354%
  Fe, median: 49.25%
[12]
  Ae, mean: 1386.730 mg
  Ae, median: 1278.52 mg
  Fe, mean: 69.336%
  Fe, median: 63.93%
[13]
  Ae: 409.644 (68.690) mg
  Fe: 40.964 (6.869) %
[14]
  Ae: 426.643 mg
  Fe: 42.664%
[15]
  Ae: 3481.42 mg
  Fe: 43.518%
[16]
  Ae: 491.58 mg
  Fe: 49.158%
